Measured values as given in patent publication US20240209028A1, “CNP COMPOUNDS” (priority 2022, published 2024).
In brackets after ≈: the same amount, converted by molar mass. Where two headings read alike, the source gives them in different places. Starred links: 1 amine or outer side, 2 acyl side, 3 side chain; linkers in the order of their positions; H or OH if unused. Positions of bridges follow the written chain, without caps; N, C: chain ends. Residues, ends and D or L forms follow the SMILES beside them. *: point of attachment. C18 diacid = O=C(O)CCCCCCCCCCCCCCCCC(=O)*; γGlu = O=C(O)[C@H](CCC(=O)[*:2])N[*:1]; AEEA = NCCOCCOCC(=O)O

Tests used:
[1] = Solubility of CNP compounds at pH 4.0 and pH 6.5; type: physicochemical
Summary of the method: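 Freeze-dried peptide was brought to a nominal ≥4000-5000 nmol/mL in 5 mM sodium acetate, 250 mM glycerol (pH 4.0) or in 8 mM sodium phosphate, 23 mg/mL glycerol (pH 6.5 via NaOH titration). Samples were equilibrated at room temperature overnight if undissolved, and supernatant concentration was measured by CAD.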

[2] = Thioflavin T (ThT) assay: lagtime and peptide recovery; type: physicochemical; conditions: assay terminated after 45 hours; for LagTime (h) at pH 6.5: ThT assay, pH 6.5, 37° C.; for LagTime (h) at pH 4.0: ThT, 37° C., shaking
Summary of the method: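 ThT (final about 1 μM) was added to peptide supernatants at pH 4.0 and 6.5 and incubated at 37 °C with orbital shaking for 45 h. Fluorescence (ex 444/em 485 nm) was read every 20 min, and lag-time was taken as the time to onset of signal rise. Recovery is the RP-UPLC (215 nm) total peak area after vs. before incubation.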

[3] = 8 mM sodium phosphate, 23 mg/mL glycerol, pH 6.5, room temperature, read-out: Solubility at pH 6.5

Structure (SMILES) | solubility [1, 3] | LagTime (h) at pH 6.5 [2] | solubility ([1]; 5 mM sodium acetate, 250 mM glycerol, pH 4.0, room temperature, read-out: Solubility at pH 4.0) | LagTime (h) at pH 4.0 [2] | solubility ([1]; pH 4)
CC[C@H](C)[C@@H]1NC(=O)[C@H](CCCNC(=N)N)NC(=O)[C@H](CC(=O)O)NC(=O)[C@H](CC(C)C)NC(=O)[C@@H]2CCCN2C(=O)[C@H](CC(C)C)NC(=O)CNC(=O)[C@H](Cc2ccccc2)NC(=O)[C@@H](NC(=O)CNC(=O)[C@H](CCC(N)=O)NC(=O)[C@H](CO)NC(=O)[C@H](CC(C)C)NC(=O)CNC(=O)[C@H](CCCCN)NC(=O)[C@H](CCCCN)NC(=O)[C@H](CCC(N)=O)NC(=O)[C@H](C)NC(=O)CNC(=O)[C@H](CCCCN)NC(=O)[C@H](Cc2ccc(O)cc2)NC(=O)[C@H](CCCCN)NC(=O)[C@H](CCCNC(=N)N)NC(=O)[C@H](C)NC(=O)COCCOCCNC(=O)COCCOCCNC(=O)CC[C@H](NC(=O)CC[C@H](NC(=O)CC[C@H](NC(=O)CC[C@H](NC(=O)CC[C@H](NC(=O)CCCCCCCCCCCCCCCCC(=O)O)C(=O)O)C(=O)O)C(=O)O)C(=O)O)C(=O)O)CSSC[C@@H](C(=O)O)NC(=O)CNC(=O)[C@H](CC(C)C)NC(=O)CNC(=O)[C@H](CO)NC(=O)[C@H](CC(C)C)NC(=O)[C@H](CO)NC(=O)CNC1=O [compound 1453] ({C18 diacid-γGlu-γGlu-γGlu-γGlu-γGlu-AEEA-AEEA}-ARKYKGAQKKGLSQGCFGLPLDRIGSLSGLGC-OH; disulfide 16-32) | 7.88 mM (≈ 35.8 mg/mL) | 45 h | – | – | –
CC[C@H](C)[C@@H]1NC(=O)[C@H](CCCNC(=N)N)NC(=O)[C@H](CC(=O)O)NC(=O)[C@H](CC(C)C)NC(=O)[C@@H]2CCCN2C(=O)[C@H](CC(C)C)NC(=O)CNC(=O)[C@H](Cc2ccccc2)NC(=O)[C@@H](NC(=O)CNC(=O)[C@H](CO)NC(=O)[C@H](CO)NC(=O)[C@H](CC(C)C)NC(=O)CNC(=O)[C@H](CCCCN)NC(=O)[C@H](CCCCN)NC(=O)[C@H](CCC(N)=O)NC(=O)[C@H](C)NC(=O)CNC(=O)[C@H](CCCCN)NC(=O)[C@H](Cc2ccc(O)cc2)NC(=O)[C@H](CCCCN)NC(=O)[C@H](CCCNC(=N)N)NC(=O)[C@H](C)NC(=O)[C@H](CCC(N)=O)NC(=O)[C@@H]2CCCN2C(=O)[C@H](Cc2c[nH]cn2)NC(=O)[C@H](CCC(=O)O)NC(=O)[C@H](CCC(N)=O)NC(=O)COCCOCCNC(=O)COCCOCCNC(=O)CC[C@H](NC(=O)CC[C@H](NC(=O)CC[C@H](NC(=O)CC[C@H](NC(=O)CCCCCCCCCCCCCCCCC(=O)O)C(=O)O)C(=O)O)C(=O)O)C(=O)O)CSSC[C@@H](C(=O)O)NC(=O)CNC(=O)[C@H](CC(C)C)NC(=O)CNC(=O)[C@H](CO)NC(=O)[C@H](CC(C)C)NC(=O)[C@H](CO)NC(=O)CNC1=O [compound 1473] ({C18 diacid-γGlu-γGlu-γGlu-γGlu-AEEA-AEEA}-QEHPQARKYKGAQKKGLSSGCFGLPLDRIGSLSGLGC-OH; disulfide 21-37; C-terminus assumed) | 1.76 mM (≈ 8.8 mg/mL) | – | 5.83 mM (≈ 29.1 mg/mL) | 45 h | –
CC[C@H](C)[C@@H]1NC(=O)[C@H](CCCNC(=N)N)NC(=O)[C@H](CCC(=O)O)NC(=O)[C@H](CC(C)C)NC(=O)[C@@H]2CCCN2C(=O)[C@H](CC(C)C)NC(=O)CNC(=O)[C@H](Cc2ccccc2)NC(=O)[C@@H](NC(=O)CNC(=O)[C@H](CO)NC(=O)[C@H](CO)NC(=O)[C@H](CC(C)C)NC(=O)CNC(=O)[C@H](CCCCN)NC(=O)[C@H](CCCCN)NC(=O)[C@H](CCC(N)=O)NC(=O)[C@H](C)NC(=O)CNC(=O)[C@H](CCCCN)NC(=O)[C@H](Cc2ccc(O)cc2)NC(=O)[C@H](CCCCN)NC(=O)[C@H](CCCNC(=N)N)NC(=O)[C@H](C)NC(=O)[C@H](CCC(N)=O)NC(=O)[C@@H]2CCCN2C(=O)[C@H](Cc2c[nH]cn2)NC(=O)[C@H](CCC(=O)O)NC(=O)[C@H](CCC(N)=O)NC(=O)CC[C@H](NC(=O)CC[C@H](NC(=O)CC[C@H](NC(=O)CC[C@H](NC(=O)CCCCCCCCCCCCCCCCC(=O)O)C(=O)O)C(=O)O)C(=O)O)C(=O)O)CSSC[C@@H](C(=O)O)NC(=O)CNC(=O)[C@H](CC(C)C)NC(=O)CNC(=O)[C@H](CO)NC(=O)[C@H](CC(C)C)NC(=O)[C@H](CO)NC(=O)CNC1=O [compound 9483] ({C18 diacid-γGlu-γGlu-γGlu-γGlu}-QEHPQARKYKGAQKKGLSSGCFGLPLERIGSLSGLGC-OH; disulfide 21-37) | – | – | – | 45 h | 4.96 mM (≈ 23.4 mg/mL)
CC[C@H](C)[C@@H]1NC(=O)[C@H](CCCNC(=N)N)NC(=O)[C@H](CC(=O)O)NC(=O)[C@H](CC(C)C)NC(=O)[C@@H]2CCCN2C(=O)[C@H](CC(C)C)NC(=O)CNC(=O)[C@H](Cc2ccccc2)NC(=O)[C@@H](NC(=O)CNC(=O)[C@H](CO)NC(=O)[C@H](CO)NC(=O)[C@H](CC(C)C)NC(=O)CNC(=O)[C@H](CCCCN)NC(=O)[C@H](CCCCN)NC(=O)[C@H](CCC(N)=O)NC(=O)[C@H](C)NC(=O)CNC(=O)[C@H](CCC(=O)O)NC(=O)[C@H](Cc2ccc(O)cc2)NC(=O)CNC(=O)CNC(=O)CNC(=O)COCCOCCNC(=O)COCCOCCNC(=O)CC[C@H](NC(=O)CCCCCCCCCCCCCCCCC(=O)O)C(=O)O)CSSC[C@@H](C(=O)O)NC(=O)CNC(=O)[C@H](CC(C)C)NC(=O)CNC(=O)[C@H](CO)NC(=O)[C@H](CC(C)C)NC(=O)[C@H](CO)NC(=O)CNC1=O [compound 1378] ({C18 diacid-γGlu-AEEA-AEEA}-GGGYEGAQKKGLSSGCFGLPLDRIGSLSGLGC-OH; disulfide 16-32) | 8.92 mM (≈ 33.9 mg/mL) | 2.5 h | – | – | –
CC[C@H](C)[C@@H]1NC(=O)[C@H](CCCNC(=N)N)NC(=O)[C@H](CC(=O)O)NC(=O)[C@H](CC(C)C)NC(=O)[C@@H]2CCCN2C(=O)[C@H](CC(C)C)NC(=O)CNC(=O)[C@H](Cc2ccccc2)NC(=O)[C@@H](NC(=O)CNC(=O)[C@H](CO)NC(=O)[C@H](CO)NC(=O)[C@@H](NC(=O)CNC(=O)[C@@H](NC(=O)[C@H](CCCCN)NC(=O)[C@H](CCC(N)=O)NC(=O)[C@H](C)NC(=O)CNC(=O)[C@H](Cc2c[nH]cn2)NC(=O)[C@H](Cc2ccc(O)cc2)NC(=O)COCCOCCNC(=O)COCCOCCNC(=O)CC[C@H](NC(=O)CCCCCCCCCCCCCCCCC(=O)O)C(=O)O)[C@@H](C)O)C(C)C)CSSC[C@@H](C(=O)O)NC(=O)CNC(=O)[C@H](CC(C)C)NC(=O)CNC(=O)[C@H](CO)NC(=O)[C@H](CC(C)C)NC(=O)[C@H](CO)NC(=O)CNC1=O [compound 1303] ({C18 diacid-γGlu-AEEA-AEEA}-YHGAQKTGVSSGCFGLPLDRIGSLSGLGC-OH; disulfide 13-29) | 4.84 mM (≈ 17.4 mg/mL) | 5 h | – | – | –
CC[C@H](C)[C@@H]1NC(=O)[C@H](CCCNC(=N)N)NC(=O)[C@H](CC(=O)O)NC(=O)[C@H](CC(C)C)NC(=O)[C@@H]2CCCN2C(=O)[C@H](CC(C)C)NC(=O)CNC(=O)[C@H](Cc2ccccc2)NC(=O)[C@@H](NC(=O)CNC(=O)[C@H](CO)NC(=O)[C@H](CO)NC(=O)[C@H](CC(C)C)NC(=O)CNC(=O)[C@@H](NC(=O)[C@H](Cc2c[nH]cn2)NC(=O)[C@H](CCC(N)=O)NC(=O)[C@H](C)NC(=O)CNC(=O)[C@H](Cc2c[nH]cn2)NC(=O)[C@H](Cc2ccc(O)cc2)NC(=O)COCCOCCNC(=O)COCCOCCNC(=O)CC[C@H](NC(=O)CCCCCCCCCCCCCCCCC(=O)O)C(=O)O)[C@@H](C)O)CSSC[C@@H](C(=O)O)NC(=O)CNC(=O)[C@H](CC(C)C)NC(=O)CNC(=O)[C@H](CO)NC(=O)[C@H](CC(C)C)NC(=O)[C@H](CO)NC(=O)CNC1=O [compound 1304] ({C18 diacid-γGlu-AEEA-AEEA}-YHGAQHTGLSSGCFGLPLDRIGSLSGLGC-OH; disulfide 13-29) | 6.66 mM (≈ 24.1 mg/mL) | 45 h | – | – | –
